Source: patent US20030186269A1, “Ssa-56 kda polypeptide and its fragments and polynucleotides encoding said polypeptides and therapeutic uses” (priority 2000, published 2003)

Legend:
[1] = healthy volunteers and patients suffering from cancer; cited from earlier work
[2] = cited from earlier work
PBMCs = experiment: Toxicity (number of live cells) in the same PBMC cultures; format: cell-based, human; conditions: live cells unchanged at start, appear to increase at end of culturing
From the text: (§1) Specifically, MB inhibits by 70 to 100% the level of HIV viral protein p24 in the culture supernatants. This effect correlates with the level of expression of viral messenger RNAs (nonspliced and single-spliced).

chemokines = experiment: Profile of secreted cytokines and chemokines in PBMC cultures; format: cell-based, human; conditions: PBMC cultures of HIV patients
From the text: as §1

[3] = test system: human immunodeficiency virus (HIV); conditions: macrophages and dendritic cells, PBMCs of infected patients; cited from earlier work
[4] = test system: mRNA encoding the Ro/SSA-like protein; experiment: Semiquantitative RT-PCR of the expression of the mRNA encoding Ro/SSA-like in PBMCs; format: cell-based, human
Method: PBMCs from patients (P) infected with HIV or from control healthy donors (C) are isolated, depleted of CD8+ (Dynabeads, Dynal) and stimulated with PHA (5 μg/ml) for 3 days. The cells are then treated or not treated with murabutide (10 μ/ml) in the presence of interleukin 2 (IL2) (10U/ml) in RPMI medium supplemented with 10% fetal calf serum (FCS) for 6 hours or 24 hours in a proportion of a minimum of 5×10^6 cells per condition.
After treatment, the RNA in the cells is extracted (RNAplus, Quantum-bioprobe), then treated with DNase (Boerhinger) and reverse transcribed (RT) using an oligo(dT) in the presence of the Mu-MLV reverse transcriptase (Superscript II, Gibco).
The quality of the RTs is verified by PCR (25 cycles) with primers specific for GAPDH (5′GCCATCAATGACCCCTTCATTGAC 3′) (SEQ ID No. 18) and (5′TGACGAACATGGGGGCATCAGCAG 3′) (SEQ ID No. 19) using 20, 100 and 500 ng of total RNA. The inventors then carried out RT-PCRs (35 cycles) with primers specific for the mRNA encoding Ro/SSA-like, (5′ GAAAGAGAGGTCGCAGAGGCCTGT 3′) (SEQ ID No. 20) and (5′ TGATAAGGCTGAGGAAGGGAAATG 3′) (SEQ ID No. 21). The number of amplification cycles was determined beforehand (35 cycles). The amplified fragments are visualized on agarose gel (1%) in the presence of ethidium bromide, and then quantified using the Imager master program (Pharmacia).
For each dilution, the given value for the gene studied is related to that of the GAPDH (ratio=R). For each patient and each time (6 h or 24 h), the R of the cells treated with murabutide is related to that of the untreated cells. The results are then expressed as % increase or inhibition of expression of the gene relative to the untreated cells. It should be noted that, for each dilution tested, the R can vary slightly; the mean for the Rs was produced by taking care to always be in the linear phase of amplification.

[5] = HIV+ patients, phase I and phase IIa; cited from earlier work
[6] = target: recombinant SSA-52 protein (human) (UniProt P19474); experiment: ELISA on coated recombinant protein, control at 1/100
Helicase = experiment: as above
[7] = target: recombinant Ro/SSA-like (SSA-56) protein, complete 485 aa open reading frame, His-tagged, expressed in E. coli (human) (UniProt Q6AZZ1); experiment: as above
[8] = target: recombinant SSA-60 protein (UniProt P10155); experiment: as above
HIV Nef (HIV) = experiment: as above
HIV Tat (HIV) = experiment: as above
[9] = target: recombinant SSB-48 protein (UniProt P05455); experiment: as above
Chain of UniProt P05455 (P05455 whole entry): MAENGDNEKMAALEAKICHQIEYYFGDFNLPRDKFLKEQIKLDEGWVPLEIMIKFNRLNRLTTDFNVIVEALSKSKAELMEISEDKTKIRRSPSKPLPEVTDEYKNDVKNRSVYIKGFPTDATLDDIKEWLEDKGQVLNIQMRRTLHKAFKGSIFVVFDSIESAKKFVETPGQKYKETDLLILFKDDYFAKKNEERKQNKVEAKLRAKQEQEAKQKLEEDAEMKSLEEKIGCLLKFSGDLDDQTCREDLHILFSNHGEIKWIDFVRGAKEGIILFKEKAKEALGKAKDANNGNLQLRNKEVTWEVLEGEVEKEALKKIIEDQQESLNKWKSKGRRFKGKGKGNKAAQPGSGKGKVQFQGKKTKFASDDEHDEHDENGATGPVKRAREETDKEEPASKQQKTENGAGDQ

Chain of UniProt P19474 (P19474 whole entry): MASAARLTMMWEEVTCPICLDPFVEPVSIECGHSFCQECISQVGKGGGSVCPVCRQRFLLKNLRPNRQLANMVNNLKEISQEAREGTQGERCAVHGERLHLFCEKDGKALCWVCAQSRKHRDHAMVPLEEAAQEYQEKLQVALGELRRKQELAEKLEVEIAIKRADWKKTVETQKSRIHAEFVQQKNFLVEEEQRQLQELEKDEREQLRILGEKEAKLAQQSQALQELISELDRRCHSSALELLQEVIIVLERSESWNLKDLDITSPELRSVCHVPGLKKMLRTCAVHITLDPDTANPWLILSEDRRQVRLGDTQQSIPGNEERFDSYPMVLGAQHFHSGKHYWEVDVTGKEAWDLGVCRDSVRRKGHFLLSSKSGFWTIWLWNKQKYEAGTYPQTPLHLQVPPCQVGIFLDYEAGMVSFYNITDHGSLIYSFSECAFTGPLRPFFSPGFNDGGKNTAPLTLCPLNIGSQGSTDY
Chain of UniProt P10155 (P10155 whole entry): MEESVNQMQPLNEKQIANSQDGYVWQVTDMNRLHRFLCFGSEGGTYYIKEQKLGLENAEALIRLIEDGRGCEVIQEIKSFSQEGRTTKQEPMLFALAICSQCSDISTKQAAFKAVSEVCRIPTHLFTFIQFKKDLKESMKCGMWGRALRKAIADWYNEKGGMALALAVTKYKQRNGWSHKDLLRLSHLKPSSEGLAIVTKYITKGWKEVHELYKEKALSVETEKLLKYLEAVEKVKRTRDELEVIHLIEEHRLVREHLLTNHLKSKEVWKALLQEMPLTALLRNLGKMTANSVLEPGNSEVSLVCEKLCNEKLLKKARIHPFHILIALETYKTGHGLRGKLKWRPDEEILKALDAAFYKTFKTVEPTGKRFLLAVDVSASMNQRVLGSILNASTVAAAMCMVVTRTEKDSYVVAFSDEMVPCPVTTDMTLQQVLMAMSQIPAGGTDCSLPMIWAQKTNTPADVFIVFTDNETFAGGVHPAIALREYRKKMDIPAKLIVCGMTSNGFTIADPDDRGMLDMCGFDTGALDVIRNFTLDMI

Row | Compound | severe toxicity in clinical studies [1] | inflammatory reactions ([2]; in vivo) | pyrogenicity ([2]; unlike MDP and many other analogs) | toxicity, number of live cells (PBMCs) | induction of chemokines known to be inhibitors of HIV replication (chemokines) | HIV replication [3] | inhibition of expression of the mRNA encoding Ro/SSA-like ([4]; PBMCs from HIV+ patients after stimulation with murabutide) | inhibition of expression of the mRNA encoding Ro/SSA-like relative to untreated cells ([4]; PBMCs from HIV+ patients, murabutide 10 μ/ml, 6 h or 24 h, 7 patients/10) | inhibition of expression of the mRNA encoding Ro/SSA-like ([4]; PBMCs from healthy controls, observed only in 3 cases out of 8) | clinical tolerance [5] | Absorbance value at 1/100 [6] [absorbance] | Absorbance value at 1/100 (Helicase) [absorbance] | Absorbance value at 1/100 [7] [absorbance] | Absorbance value at 1/100 [8] [absorbance] | Absorbance value at 1/100 (HIV Nef (HIV)) [absorbance] | Absorbance value at 1/100 (HIV Tat (HIV)) [absorbance] | Absorbance value at 1/100 [9] [absorbance]
1 | CCCCOC(=O)[C@@H](CCC(N)=O)NC(=O)[C@H](C)NC(=O)[C@@H](C)O[C@H]1[C@H](O)[C@@H](CO)OC(O)[C@@H]1NC(C)=O (some centres unmarked) [Murabutide] | has not shown any severe toxicity | does not induce inflammatory reactions | not pyrogenic | lack of toxicity | induces reproduction of chemokines | inhibits human immunodeficiency virus (HIV) replication | significant inhibition | more than 40% | inhibition is weaker | good clinical tolerance | – | – | – | – | – | – | –
2 | Control SP20 | – | – | – | – | – | – | – | – | – | – | 0.059 | 0.055 | 0.058 | 0.068 | 0.056 | 0.068 | 0.051
